We go through 8 molecules from US7452911B2 (Boehringer Ingelheim Pharma GmbH & Co. KG, priority 2002, dated 2008).

Bounds are passed on as bounds.

The target in series [1] is T1, hMCH-1R (Homo sapiens, UniProt Q99705).
T1 construct: expressed in transfected cells; host or cells: CHO/Galpha16 cells, stably transfected; membrane preparation
As to the kind of experiment: MCH-1 receptor binding test (125I-MCH binding to membranes of hMCH-1R transfected CHO/Galpha16 cells). The note with it: 100 pM 125I-MCH, membranes of CHO/Galpha16 cells stably transfected with hMCH-1R, 60 minutes at ambient temperature. How it is done: Membranes from CHO/Galpha16 cells stably transfected with human hMCH-1R are resuspended using a syringe (needle 0.6×25 mm) and diluted in test buffer (50 mM HEPES, 10 mM MgCl2, 2 mM EGTA, pH 7.00; 0.1% bovine serum albumin (protease-free), 0.021% bacitracin, 1 μg/ml aprotinin, 1 μg/ml leupeptin and 1 μM phosphoramidone) to a concentration of 5 to 15 μg/ml. […] After the incubation the reaction is filtered using a cell harvester through 0.5% PEI treated glass fibre filters (GF/B, Unifilter Packard). The membrane-bound radioactivity retained on the filter is then determined after the addition of scintillator substance (Packard Microscint 20) in a measuring device (TopCount of Packard).
The analysis of the concentration binding curve is carried out on the assumption of one receptor binding site.

Series [2] has as its target T2, MCH-1R (Rattus norvegicus, UniProt P97639). Set-up: host or cells: rats (in vivo). Conditions: rats; cited from earlier work.
The target in series [3] is T2, MCH-1R. Set-up: host or cells: whole animals (in vivo). Conditions: animals treated with the antagonist; cited from earlier work.

T2 sequence (P97639 whole entry): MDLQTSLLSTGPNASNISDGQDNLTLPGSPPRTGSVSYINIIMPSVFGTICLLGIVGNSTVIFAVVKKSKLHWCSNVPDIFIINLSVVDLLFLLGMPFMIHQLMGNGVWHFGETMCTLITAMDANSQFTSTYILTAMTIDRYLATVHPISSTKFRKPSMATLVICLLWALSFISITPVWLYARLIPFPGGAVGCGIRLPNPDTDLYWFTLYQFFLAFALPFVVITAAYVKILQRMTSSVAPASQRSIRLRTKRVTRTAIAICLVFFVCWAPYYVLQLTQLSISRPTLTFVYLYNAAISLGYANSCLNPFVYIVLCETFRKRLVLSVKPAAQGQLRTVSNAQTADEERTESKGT
T1 sequence (Q99705 whole entry): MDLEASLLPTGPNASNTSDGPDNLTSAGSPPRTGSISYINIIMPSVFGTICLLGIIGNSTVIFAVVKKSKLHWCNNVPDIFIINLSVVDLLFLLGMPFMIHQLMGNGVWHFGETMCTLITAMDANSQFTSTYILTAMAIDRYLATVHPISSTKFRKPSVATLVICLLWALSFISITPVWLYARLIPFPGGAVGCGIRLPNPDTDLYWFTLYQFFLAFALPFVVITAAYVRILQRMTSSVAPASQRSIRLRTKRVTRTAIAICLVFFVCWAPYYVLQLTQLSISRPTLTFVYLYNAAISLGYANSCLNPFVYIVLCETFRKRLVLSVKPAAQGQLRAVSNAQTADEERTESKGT

Take `CN(C)CC1CCN(CCOc2ccc(C#Cc3ccc(-c4ccc(Cl)cc4)cn3)cc2)CC1.Cl`: the melting point was above 250 °C.

In the case of `CCN(CC)CCOc1ccc(C#Cc2ccc(-c3ccc(F)c(F)c3)cn2)cc1` [Example 1.3, (2-{4-[5-(3,4-difluoro-phenyl)-pyridin-2-ylethynyl]-phenoxy}-ethyl)-diethyl-amine], the half-maximal inhibitory concentration (IC50) in series [1] amounted to 74 nM. This lies in the double-digit nanomolar range.

`Clc1ccc(-c2ccc3nc(C#Cc4ccc(CN5CCCC5)cc4)ccc3c2)cc1` [Example 17, 6-(4-chloro-phenyl)-2-(4-pyrrolidin-1-ylmethyl-phenylethynyl)-quinoline] had a melting point of 170 to 193 °C.

Take `Clc1ccc(-c2ccc3nc(C#Cc4ccc(OCCN5CCCC5)cc4)ccc3c2)cc1` [Example 18, 6-(4-chloro-phenyl)-2-[4-(2-pyrrolidin-1-yl-ethoxy)-phenylethynyl]-quinoline]: the melting point fell in the range of 176 to 185 °C.

Take `Clc1ccc(-c2ccc3nc(C#Cc4cccc(OCCN5CCCC5)c4)ccc3c2)cc1` [Example 19, 6-(4-chloro-phenyl)-2-[3-(2-pyrrolidin-1-yl-ethoxy)-phenylethynyl]-quinoline]: the melting point was 114 to 117 °C.

`Clc1ccc(-c2ccc3nc(C#Cc4ccc5oc(CN6CCCC6)nc5c4)ccc3c2)cc1` [Example 20, 6-(4-chloro-phenyl)-2-(2-pyrrolidin-1-ylmethyl-benzoxazol-5-ylethynyl)-quinoline]: the melting point was 151 to 153 °C.

`Clc1ccc(-c2ccc(C#Cc3ccc4oc(CN5CCCC5)nc4c3)nc2)cc1` [Example 21, 5-[5-(4-chloro-phenyl)-pyridin-2-ylethynyl]-2-pyrrolidin-1-ylmethyl-benzoxazole] registered a melting point of 145 °C.

As to `COCC1=C(C(=O)OC)[C@H](c2ccc(F)c(F)c2)N(C(=O)NCCCN2CCC(c3cccc(NC(C)=O)c3)CC2)C(=O)N1` [SNAP-7941], in series [2], the “effects in behavioural experiments” value was “anxiolytic and antidepressant effects”. For the same molecule, the “body weight in long term trials” value in series [3] is reported as “lose significant amounts of weight”.

In general, melting point refers to the temperature of the solid-liquid transition. In general, IC50 refers to the concentration that gives 50% inhibition. Read a low IC50 as higher potency.
